# From patent US20160362402A1, “NOVEL COMPOUNDS HAVING ANTI-ALLODYNIC AND ANTIHYPERALGESIC ACTIVITY” (CONSORZIO INTERUNIVERSITARIO NAZIONALE PER LA SCIENZA E …, priority 2014, published 2016)
# What was measured:
# primary rat astrocytes = experiment: Superoxide anion production in primary rat astrocytes incubated with oxaliplatin; format: cell-based; conditions: oxaliplatin 100 μM alone, 4 hours; control 16.9±0.3 μM
# Description: FIG. 1. Evaluation of the antioxidant profile of ADM-12 in a rat primary astrocytes cell culture *P<0.01 with respect to the untreated control and ̂P<0.01 with respect to astrocytes treated with oxaliplatin.
# The antioxidant profile of ADM-12 also emerges in a cell culture of primary rat astrocytes (FIG. 1). Incubation of cells with the chemotherapic agent oxaliplatin 100 μM induces a significant production of the superoxide anion, which after 4 hours increases from 16.9±0.3 μM of the control to 31.1±2.1 μM; co-treatment with ADM-12 100 μM reduces the production of oxygen free radicals to 21.0±0.4 μM.
# [1] = Compatibility with oxaliplatin in physiological solution (1H NMR, mass spectra); format: physicochemical
smiles,measurement,setting,value
O=C1[O][Pt]2([NH][C@@H]3CCCC[C@H]3[NH]2)[O]C1=O [oxaliplatin],production of the superoxide anion,primary rat astrocytes,31.1 ± 2.1 µM
same,structural integrity when mixed,[1]; ADM-12 and oxaliplatin mixed in physiological solution,remain structurally unaltered
same,signal variations at 1H NMR and in mass spectra,"[1]; ADM-12 with oxaliplatin in physiological solution, 24 and 48 hours, room temperature and 37° C.",does not show signal variations
